Laboratory results: patent publication US7157092B1, “Acyl pseudodipeptides, preparation method and pharmaceutical compositions containing same” (Om Pharma, priority 1998, dated 2007)

Legend:
DC-6 cells = assay: α TNF production by predendritic cells at DC-6 stage (ELISA); settings: 10 μg/ml; 4, 6 and 24 hr; FIG. 10
H1N1 antigen = assay: Subcutaneous immunization with H1N1 antigen: specific serum immunoglobulins (ELISA); assay type: in vivo, BALB/c mice; settings: for Immunoglobulins specifically raised against H1N1 of IgG1 subclass / Immunoglobulins specifically raised against H1N1 of IgG2a subclass / Immunoglobulins specifically raised against H1N1 of IgM subclass: s.c. injections days 0 and 14, H1N1 2.5 μg, adjuvant 50 μg per injection, ± SD; for adjuvant effect on titer of antibodies specifically raised against H1N1: after one or two injections, FIGS. 22-24
ovalbumin = assay: Subcutaneous immunization with ovalbumin antigen: specific serum immunoglobulins (ELISA); assay type: in vivo, BALB/c mice; settings: for adjuvant effect on titer of antibodies specifically raised against ovalbumin: IgG1 and IgG2a subclasses, after one or two injections, FIGS. 25-27; for Immunoglobulins specifically raised against ovalbumin of IgG1 subclass / Immunoglobulins specifically raised against ovalbumin of IgG2a subclass / Immunoglobulins specifically raised against ovalbumin of IgM subclass: s.c. injections days 0 and 14, ovalbumin 50 μg, adjuvant 50 μg per injection, ± SD
Protocol: To this end, 50 BALB/c mice (females, aged 8 weeks at the beginning of treatment) were divided into 5 groups as follows:
Antigen: An ovalbumin stock solution is prepared at a concentration of 0.5 mg/ml in 0.9% NaCl.
The negative control consists of a 0.9% NaCl solution without antigen.
Antigen-Adjuvant mixture: Adjuvants are allowed to stand for 20 minutes at 37° C. before vortex treatment for 3 minutes. Then the antigen and (0.9%) NaCl are added as specified in the above Table, and the antigen/adjuvant mixture is vortexed briefly before placing it on a rotary stirrer for 15 minutes at room temperature, then the whole mixture is vortexed for 3 minutes.
Immunization regimen: Injections are scheduelled on days 0 and 14. The mixtures stated in the preceeding table are administered by subcutaeous route (75 μl on the side, 150 μl in total per animal). Blood sampling is scheduelled on days 14 and 28 (orbital puncture).
Assay for anti-ovalbumin immunoglobulins: The following serum Immunolglobulins which are specifically directed against ovalbumin are assayed in duplicate by ELISA: IgG1, IgG2a, and IgM. Briefly stated, microtiter plates (NUNC Immunoplate, Roskilde, DK) are incubated (overnight coating) at 40C together with 100 μl ovalbumin (0.5 μg) in bicarbonate buffer pH 9.6). After washing with 0.5% Tween-20 (Merck Hohenbrunn, D), sera are diluted 50-, 200- and 800-fold (diluting solution: phosphate buffered saline (PBS)+1% bovine serum albumin (BSA, Sigma, St. Louis, Mo., USA)+0.02% Tween-20)). 100 μl of each dilute serum sample are added to the wells. Incubation lasts 45 minutes at 37° C.
After a second washing step, IgG1, IgG2a and IgM specifically directed to ovalbumin are incubated for 30 minutes at 37° C. together with 100 μl of anti-IgG1 antibodies (anti-mouse rat antibody)-peroxydase conjugate (Serotec, Oxford, UK), IgG2a-peroxydase conjugate (Pharmingen, San Diego, Calif., USA) and IgM-biotin conjugate (Pharmingen, San Diego, Calif., USA), diluted beforehand in PBS/BSA/Tween buffer (250-, 1000-, 500-fold dilutions, respectively). For IgM, after an extra washing step, a 3rd incubation step is required (30 min. at 37° C.) with a 1:100 dilute solution of streptavidin-peroxydase conjugate (Dako, Glostrup, DK).
After the washing step, 100 μl of a phenylene 1,2-diamine solution (OPD, Merck, Darmstadt, GFR) are added to detect peroxydase-coupled anti-IgG1 and anti-IgG2 secondary antibodies (whereas for IgM, the reagent being used is 3′, 3′, 5′,5′-tetramethylbenzidine (TMB, Sigma, St. Louis, Mo., USA). After a 20 minute incubation period at room temperature, the reaction is stopped by adding 100 μl of 2N H2SO4. Absorbance values are read at 490 nm with a Bio-Rad 3550 model plate reader
Results of each reading at 490 nm are given in arbitrary units (A.U.) per ml. This is achieved by comparing each sample with a standard prepared from different dilutions of a sample pool collected from group B at day 28 (animals injected with ovalbumin alone). As clearly understood by this term, the sample pool diluted 50-fold is at a concentration of 1000 A.U./ml. Individual results are then corrected for the corresponding dilution factor (50, 200, or 800 times). Only the mean values of each group and the standard deviation (SD) are herein reported.

murine macrophage cells = assay: Nitric oxide production in supernatants of macrophage cultures (Griess); assay type: cell-based, C57/BL6 mice; settings: 22 hours incubation, Griess reagent; FIG. 2
Protocol: Two six-week old male C57/BL6 mice were killed by CO2 inhalation followed by cervical dislocation. The mice were washed with alcohol, and the skin of the posterior members was entirely removed. The hip, the femur and the tibia bones were removed by joint disruption. The flesh was grossly removed using a scalpel. The bones were cleaned and the bone ends were cut with scissors. The marrrow was aspirated by injecting three times 1 ml of Dulbecco's Modified Eagle Medium (DH medium) in the bone lumen. The cells were resuspended in DH medium and centrifuged at 300×g for 5 minutes. The supernatant fluid was discarded and the cells were resuspended at a density of 40 000 cells/ml in DH medium supplemented with 20% horse serum (HS) and 30% L929 culture supernatant. L929 is a murine fibroblast cell line the supernatant fluid of which is rich in growth factor for macrophage (M-CSF). […]
After 22 hours, the microtiter plates were centrifuged, 5 minutes at 400×g and 100 μl of supernatant fluid were withdrawn and transferred into a microtiter plate. […] The microtiter plates were read with a spectrophotometer at 562 nm wavelength against a reference at 690 nm. […]
The results are expressed as mean±standard deviation after deduction of the negative control value and plotted as a dose versus response curve.

With `CCCCCCCCCCCC(=O)O[C@H](CCCCCCCCCCC)CC(=O)NC(CCOP(=O)(O)O)C(=O)NCCCC(COP(=O)(O)O)NC(=O)C[C@H](O)CCCCCCCCCCC` (stereo partly drawn) [OM-294-DP, 3-[(R)-3-dodecanoyloxytetradecanoylamino]-4-oxo-5-aza-9-[(R)-3-hydroxytetradecanoylamino]decan-1,10-diol 1, 10-bis(dihydrogenphosphate)] the “α TNF production by DC-6 cells” value (DC-6 cells) was “only a minor stimulating effect”, the “Immunoglobulins specifically raised against H1N1 of IgG1 subclass” value (H1N1 antigen; Day 14) was 59 ± 21 Arbitrary units/ml and the “Immunoglobulins specifically raised against H1N1 of IgG2a subclass” value (H1N1 antigen; Day 14) was 452 ± 584 Arbitrary units/ml. The “Immunoglobulins specifically raised against H1N1 of IgM subclass” value (H1N1 antigen; Day 14) was 20756 ± 7160 Arbitrary units/ml, the “Immunoglobulins specifically raised against H1N1 of IgG1 subclass” value (H1N1 antigen; Day 28) was 38 ± 25 Arbitrary units/ml and the “Immunoglobulins specifically raised against H1N1 of IgG2a subclass” value (H1N1 antigen; Day 28) was 782 ± 857 Arbitrary units/ml. For the same compound, the “Immunoglobulins specifically raised against H1N1 of IgM subclass” value (H1N1 antigen; Day 28) was 20944 ± 9065 Arbitrary units/ml, the “adjuvant effect on titer of antibodies specifically raised against H1N1” value (H1N1 antigen) was “significantly increase the titer of antibodies specifically raised against H1N1” and the “adjuvant effect on titer of antibodies specifically raised against ovalbumin” value (ovalbumin) was “significantly increase”. The “production of nitric oxide by murine macrophage cells” value (murine macrophage cells) was “to a much greater extent than E. coli LPS”.

`CCCCCCCCCCCC(=O)O[C@H](CCCCCCCCCCC)CC(=O)NC(CCOP(=O)(O)O)C(=O)NCCCC(CO)NC(=O)C[C@H](O)CCCCCCCCCCC` (stereo partly drawn) [OM-294-MP, 3-[(R)-3-dodecanoyloxytetradecanoylamino]-4-oxo-5-aza-9-[(R)-3-hydroxytetradecanoylamino]-decane-1,10-diol 1-dihydrogenphosphate] was tested, and the “α TNF production by DC-6 cells” value (DC-6 cells) was “in a way similar to LPS”, the “Immunoglobulins specifically raised against H1N1 of IgG1 subclass” value (H1N1 antigen; Day 14) was 69 ± 34 Arbitrary units/ml and the “Immunoglobulins specifically raised against H1N1 of IgG2a subclass” value (H1N1 antigen; Day 14) was 1619 ± 743 Arbitrary units/ml. The “Immunoglobulins specifically raised against H1N1 of IgM subclass” value (H1N1 antigen; Day 14) was 19065 ± 4069 Arbitrary units/ml, the “Immunoglobulins specifically raised against H1N1 of IgG1 subclass” value (H1N1 antigen; Day 28) was 59 ± 31 Arbitrary units/ml and the “Immunoglobulins specifically raised against H1N1 of IgG2a subclass” value (H1N1 antigen; Day 28) was 1767 ± 1034 Arbitrary units/ml. For the same compound, the “Immunoglobulins specifically raised against H1N1 of IgM subclass” value (H1N1 antigen; Day 28) was 18018 ± 1016 Arbitrary units/ml, the “adjuvant effect on titer of antibodies specifically raised against H1N1” value (H1N1 antigen) was “significantly increase the titer of antibodies specifically raised against H1N1” and the “Immunoglobulins specifically raised against ovalbumin of IgG1 subclass” value (ovalbumin; Day 14) was 19 ± 8 Arbitrary units/ml. For the same compound, the “Immunoglobulins specifically raised against ovalbumin of IgG2a subclass” value (ovalbumin; Day 14) was 11253 ± 12169 Arbitrary units/ml, the “Immunoglobulins specifically raised against ovalbumin of IgM subclass” value (ovalbumin; Day 14) was 19742 ± 5667 Arbitrary units/ml and the “Immunoglobulins specifically raised against ovalbumin of IgG1 subclass” value (ovalbumin; Day 28) was 40 ± 69 Arbitrary units/ml. The “Immunoglobulins specifically raised against ovalbumin of IgG2a subclass” value (ovalbumin; Day 28) was 4192 ± 2104 Arbitrary units/ml, the “Immunoglobulins specifically raised against ovalbumin of IgM subclass” value (ovalbumin; Day 28) was 9827 ± 2021 Arbitrary units/ml and the “adjuvant effect on titer of antibodies specifically raised against ovalbumin” value (ovalbumin) was “significantly increase”. The “production of nitric oxide by murine macrophage cells” value (murine macrophage cells) was “weaker response”.
